“And” between values parts separate entries of the source, which are not always exact repeats. Identical values can stand only once. Like-named read-outs stand apart in the source and are kept apart here.
Key:
[1] = target: ElSTING; assay: ITC binding of cAA to ElSTING; parameters: species or system Epilithonimonas lactis; settings: ITC (Supplementary Fig. 5)
Experimental: (§1) ITC experiments were performed at 25 °C using nano-ITC (TA Instruments). Purified RiSTING and ElSTING were exchanged into assay buffer containing 20 mM Tris pH 8.0, 150 mM NaCl. 10 mM stock of cGG (Item No. 17144, Cayman Chemical) and cAA (Item No. 17753, Cayman Chemical) were prepared by dissolving in the same buffer. 20 injections of ligand (0.9-1.2 mM) were sequentially titrated to tested STING protein solution (30-100 μM) with a stirring speed of 300 rpm. Data were fit to “independent” model to derive ΔH, ΔS, and Kd values using NanoAnalyze v3.12.5 (TA Instruments).

[2] = system: ElTIR-STING; assay: NAD+ cleavage activity assay, ElTIR-STING; format: biochemical, Epilithonimonas lactis; settings: for ΔRFU after 10 mins (single replicates): 500 μM ε-NAD; for ΔRFU after 10 mins, Average: n = 3
Experimental: (§2) The NAD^+ cleavage activity of the N-terminal TIR domain of full-length TIR-STING proteins were accessed using the previously described protocol. Briefly, 100 μl reaction mixture containing ligand (cGG or cAA) at the indicated concentration and 500 μM ε-NAD (Product No. N2630, Sigma-Aldrich) in the assay buffer (20 mM HEPES pH 7.5, 100 mM KCl) was pre-incubated at room temperature. Tested TIR-STING protein (0.5–1 μM) was then added to start the reaction. The fluorescence signal was continuously monitored for 1 hour at an emission wavelength of 410 nm with excitation at 300 nm using Synergy H1 microplate reader (BioTek). The changes of relative fluorescence units at different time points were recorded.

[3] = system: E. coli cells overexpressing ElTIR-STING; assay: E. coli toxicity assay (growth curves), ElTIR-STING with or without cAA; format: cell-based, E. coli BL21(DE3); settings: for OD600: replicates 1-3
Experimental: To access the cytotoxicity of TIR-STING proteins and their variants, E. coli BL21(DE3) cells which produce endogenous cGG were used. The cells carrying expression plasmid pET21 or pET24 with indicated TIR-STING were first inoculated into 3-ml LB medium and incubated at 37 °C with shaking overnight. The overnight culture was then diluted by fresh LB medium to an optical density at 600 nm (O.D.600) of ~0.1-0.2, followed by addition of 0.5 mM IPTG and 30 mM nicotinamide to induce the overexpression of tested proteins. […] To access the anti-phage ability of full-length LrTIR-STING, E. coli BL21(DE3) cells containing empty vector, pET24_LrTIR-STING or pET24_LrTIR-STING lid-to-loop mutant was first cultivated at 37 °C overnight and then diluted with fresh medium to O.D.600 of 0.1-0.2, followed by 0.5 mM IPTG induction and infected with T2 phage at a multiplicity of infection (MOI) of 10 or 0.01. The E. coli BL21(DE3) cells without IPTG induction and T2 phage infection was served as control.

[4] = system: T2 phage infection of E. coli cells overexpressing ElTIR-STING; format: cell-based, E. coli BL21(DE3) / phage T2; settings: for OD600: replicates 1-3
[5] = system: ElTIR-STING; assay: Gel filtration / SEC-MALS of ElTIR-STING with cAA; parameters: species or system Epilithonimonas lactis
Experimental: Purified protein samples for SEC-MALS analysis were diluted in buffer containing 50 mM Tris pH 8.0, 200 mM NaCl, 1 mM TCEP to a final concentration of 1 mg/ml. The protein sample was incubated with 0.11 mM cyclic di-nucleotide at 4 °C for 1 hour, followed by centrifugation at 4 °C, 18,000x g for 30 mins to remove precipitated proteins. The final protein sample was analyzed using GE AKTA UPC Purifier FPLC system coupled to a Wyatt Optilab T-rex refractive index detector and a Wyatt miniDAWN TREOS to obtain O.D.280, molar mass and refractive index (dRI).

[6] = target: oligomerization mutant ElTIR-STING^D175R,S179R (Epilithonimonas lactis DSM 19921); assay: SEC; gel-filtration analysis of full-length ElTIR-STING in the absence of cAA
[7] = target: oligomerization mutant ElTIR-STING^D175R,S179R (Epilithonimonas lactis DSM 19921); assay: SEC; gel-filtration analysis of full-length ElTIR-STING in the presence of cAA at 2-fold molar excess
[8] = target: RiSTING; assay: ITC binding of cGG to RiSTING; parameters: species or system Riemerella anatipestifer
Experimental: as §1

[9] = system: MyTIR-STING; assay: NAD+ cleavage activity assay, MyTIR-STING (control); format: biochemical; settings: 1 μM cGG
Experimental: as §2

[10] = system: RiSTING; assay: Dynamic light scattering of RiSTING with or without cGG; parameters: species or system Riemerella anatipestifer; settings: two molar excesses of cGG; 84% of particles; 9.0 nm without cGG
Experimental: The DLS experiments were performed using Zetasizer Nano ZS90 (Malvern instruments). Briefly, protein samples containing 1 mg/ml RiSTING in the presence or absence of 2-fold molar excess of cGG were prepared and degassed. Polydispersity index (PDI) and globule size were examined at 25 °C.

Nc1ncnc2c1ncn2[C@@H]1O[C@@H]2COP(=O)(O)O[C@H]3[C@@H](O)[C@H](n4cnc5c(N)ncnc54)O[C@@H]3COP(=O)(O)O[C@H]2[C@H]1O [cAA, 3′3′-cyclic di-AMP] was tested, and the “binding affinity (in words)” value [1] was “micromolar affinity”, the “ΔRFU after 10 mins (single replicates)” value ([2]; 1 μM cAA) was 3735 RFU and 3756 RFU and 9276 RFU and the “ΔRFU after 10 mins, Average” value ([2]; 1 μM cAA) was 5589 RFU. The “ΔRFU after 10 mins (single replicates)” value ([2]; 10 μM cAA) was 3586 RFU and 4211 RFU and 4642 RFU, the “ΔRFU after 10 mins, Average” value ([2]; 10 μM cAA) was 4146 RFU and the “ΔRFU after 10 mins (single replicates)” value ([2]; 100 μM cAA) was 4282 RFU and 3852 RFU and 4467 RFU. The “ΔRFU after 10 mins, Average” value ([2]; 100 μM cAA) was 4200 RFU, the “activation of NAD+ cleavage activity (in words)” value ([2]; full-length ElTIR-STING, up to 100 μM cAA) was “could not activate” and the OD600 ([3]; time 0 min, 300 μM cAA (Fig. 4b legend)) was 0.028 (2×) and 0.026. For the same molecule, the OD600 ([3]; time 20 min, 300 μM cAA) was 0.036 and 0.037 and 0.034, the OD600 ([3]; time 40 min, 300 μM cAA) was 0.056 (2×) and 0.054 and the OD600 ([3]; time 60 min, 300 μM cAA) was 0.083 (2×) and 0.079. For the same molecule, the OD600 ([3]; time 80 min, 300 μM cAA) was 0.125 and 0.124 and 0.119, the OD600 ([3]; time 100 min, 300 μM cAA) was 0.186 and 0.183 and 0.175 and the OD600 ([3]; time 120 min, 300 μM cAA) was 0.252 (2×) and 0.244. The OD600 ([3]; time 140 min, 300 μM cAA) was 0.33 and 0.331 and 0.326, the OD600 ([3]; time 160 min, 300 μM cAA) was 0.408 (2×) and 0.41 and the OD600 ([3]; time 180 min, 300 μM cAA) was 0.503 and 0.497 and 0.506. For the same molecule, the OD600 ([3]; time 200 min, 300 μM cAA) was 0.563 and 0.565 and 0.575, the OD600 ([3]; time 220 min, 300 μM cAA) was 0.612 and 0.615 and 0.627 and the OD600 ([3]; time 240 min, 300 μM cAA) was 0.66 (2×) and 0.677. The OD600 ([3]; time 260 min, 300 μM cAA) was 0.7 and 0.704 and 0.715, the OD600 ([3]; time 280 min, 300 μM cAA) was 0.73 and 0.732 and 0.743 and the OD600 ([3]; time 300 min, 300 μM cAA) was 0.765 and 0.764 and 0.784. The OD600 ([3]; time 320 min, 300 μM cAA) was 0.798 and 0.804 and 0.81, the OD600 ([3]; time 340 min, 300 μM cAA) was 0.822 and 0.831 and 0.839 and the OD600 ([3]; time 360 min, 300 μM cAA) was 0.854 and 0.863 and 0.865. The OD600 ([3]; time 380 min, 300 μM cAA) was 0.875 and 0.886 and 0.885, the OD600 ([3]; time 400 min, 300 μM cAA) was 0.892 and 0.904 and 0.902 and the OD600 ([3]; time 420 min, 300 μM cAA) was 0.901 and 0.917 and 0.912. The OD600 ([3]; time 440 min, 300 μM cAA) was 0.911 and 0.927 and 0.92, the OD600 ([3]; time 460 min, 300 μM cAA) was 0.919 and 0.935 and 0.929 and the OD600 ([3]; time 480 min, 300 μM cAA) was 0.926 and 0.943 and 0.935. For the same molecule, the OD600 ([3]; time 500 min, 300 μM cAA) was 0.933 and 0.952 and 0.942, the “effect on growth of E. coli expressing ElTIR-STING (in words)” value ([3]; with vs without addition of cAA and vs empty vector) was “no differences” and the “resistance to phage infection (in words)” value ([4]; 100 μM cAA in growth medium, T2 phage) was “did not confer resistance”. The OD600 ([4]; MOI = 0.01, time 30 min) was 0.015 and 0.017 and 0.016, the OD600 ([4]; MOI = 0.01, time 45 min) was 0.021 and 0.024 and 0.023 and the OD600 ([4]; MOI = 0.01, time 60 min) was 0.030 (2×) and 0.032. For the same molecule, the OD600 ([4]; MOI = 0.01, time 75 min) was 0.036 (2×) and 0.038, the OD600 ([4]; MOI = 0.01, time 90 min) was 0.040 (2×) and 0.043 and the OD600 ([4]; MOI = 0.01, time 105 min) was 0.042 and 0.045 and 0.041. For the same molecule, the OD600 ([4]; MOI = 0.01, time 120 min) was 0.046 (2×) and 0.050, the OD600 ([4]; MOI = 0.01, time 135 min) was 0.050 and 0.053 and 0.049 and the OD600 ([4]; MOI = 0.01, time 150 min) was 0.054 and 0.057 and 0.062. The OD600 ([4]; MOI = 0.01, time 165 min) was 0.058 and 0.060 and 0.056, the OD600 ([4]; MOI = 0.01, time 180 min) was 0.061 and 0.064 and 0.058 and the OD600 ([4]; MOI = 1, time 30 min) was 0.017 and 0.015 and 0.011. For the same molecule, the OD600 ([4]; MOI = 1, time 45 min) was 0.019 and 0.018 and 0.012, the OD600 ([4]; MOI = 1, time 60 min) was 0.021 and 0.019 and 0.014 and the OD600 ([4]; MOI = 1, time 75 min) was 0.021 and 0.020 and 0.015. For the same molecule, the OD600 ([4]; MOI = 1, time 90 min) was 0.023 and 0.021 and 0.016, the OD600 ([4]; MOI = 1, time 105 min) was 0.025 and 0.023 and 0.018 and the OD600 ([4]; MOI = 1, time 120 min) was 0.027 and 0.025 and 0.019. The OD600 ([4]; MOI = 1, time 135 min) was 0.028 and 0.025 and 0.020, the OD600 ([4]; MOI = 1, time 150 min) was 0.029 and 0.027 and 0.021 and the OD600 ([4]; MOI = 1, time 165 min) was 0.030 and 0.028 and 0.022. The OD600 ([4]; MOI = 1, time 180 min) was 0.030 and 0.029 and 0.022, the OD600 ([4]; Uninfected, time 30 min) was 0.025 and 0.017 (2×) and the OD600 ([4]; Uninfected, time 45 min) was 0.032 and 0.023 and 0.024. The OD600 ([4]; Uninfected, time 60 min) was 0.034 and 0.033 (2×), the OD600 ([4]; Uninfected, time 75 min) was 0.049 and 0.047 and 0.046 and the OD600 ([4]; Uninfected, time 90 min) was 0.067 and 0.064 and 0.063. For the same molecule, the OD600 ([4]; Uninfected, time 105 min) was 0.091 and 0.087 (2×), the OD600 ([4]; Uninfected, time 120 min) was 0.121 and 0.117 and 0.116 and the OD600 ([4]; Uninfected, time 135 min) was 0.160 and 0.155 and 0.152. For the same molecule, the OD600 ([4]; Uninfected, time 150 min) was 0.208 and 0.200 and 0.197, the OD600 ([4]; Uninfected, time 165 min) was 0.262 and 0.252 and 0.247 and the OD600 ([4]; Uninfected, time 180 min) was 0.327 and 0.313 and 0.308. The OD600 ([4]; Uninfected, time 195 min) was 0.398, the “molecular weight of cAA-induced ElTIR-STING oligomer” value ([5]; SEC-MALS, 0.11 mM cyclic di-nucleotide) was 3937–7883 kDa and the “oligomeric state induced (in words)” value ([5]; gel filtration, 2-fold molar excess of cAA, dimeric without ligand) was “large oligomers”.
For “oligomerization mutant ElTIR-STING^D175R,S179R (natural protein)”, the stoichiometry N [6] was 6 and 2 and the stoichiometry N [7] was 6 and 2.
With Nc1nc2c(ncn2[C@@H]2O[C@@H]3COP(=O)(O)O[C@H]4[C@@H](O)[C@H](n5cnc6c(=O)[nH]c(N)nc65)O[C@@H]4COP(=O)(O)O[C@H]3[C@H]2O)c(=O)[nH]1 [cGG, 3′3′-cyclic di-GMP] the “binding affinity (in words)” value [8] was “nanomolar affinity”, the Kd ([8]; 25 °C, 20 mM Tris pH 8.0, 150 mM NaCl, read-out: dissociation constant (Kd)) was 0.1 nM and the “ΔRFU after 10 mins, Average” value ([9]; n = 3) was 31574 RFU. For the same molecule, the “ΔRFU after 10 mins (single replicates)” value ([9]; positive control) was 32209 RFU and 31707 RFU and 30806 RFU and the “major particle size of RiSTING” value [10] was 40.6 nm.

— paper PMC10739871, “Structural insights into the regulation, ligand recognition, and oligomerization of bacterial STING” (Nature Communications, 2023)
